Laboratory results: patent publication US20020028804A1, “Cosmetic compositions containing substituted iminodibenzyl or fluorene derivatives” (Unilever Home & Personal Care USA, Division of Conopco, Inc., priority 2000, published 2002)
Several values for one entry are separate records, joined by “and”; a condition that tells them apart may be missing. Identical values can stand only once. Like-named read-outs stand apart in the source and are kept apart here.

Tested on: human sebocytes
Experiment: Sebum suppression: 14C-acetate incorporation in cultured human sebocytes
Type: cell-based
Conditions: for activity at 0.1 µM / activity at 1 µM / activity at 10 µM / activity at 100 µM: Homo sapiens
Method: Compounds A through H were tested for their potential to suppress sebum expression, alone or in the presence of a retinoid.
Secondary cultures of human sebocytes obtained from an adult […] were grown in 48-well tissue culture plates (Costar Corp.; Cambridge, Mass.) or 96-well tissue culture plates (Packard Co.; Meriden, Conn.) until confluent. Sebocyte growth medium consisted of Clonetics Keratinocyte Basal Medium (KBM) supplemented with 14 μg/ml bovine pituitary extract, 0.4 μg/ml hydrocortisone, 5 μg/ml insulin, 10 ng/ml epidermal growth factor, 1.2×10−10 M cholera toxin, 100 units/ml penicillin, and 100 μg/ml streptomycin. All cultures were incubated at 37° C. in the presence of 7.5% CO2. Medium was changed three times per week.
On the day of experimentation, the growth medium was removed and the sebocytes washed three times with sterile Dulbecco's Modified Eagle Medium (DMEM; phenol red free). Fresh DMEM was added to each sample (duplicates, triplicates, or quadruplicates depending on the experiment) with 5 microliter of test agent solubilized in ethanol either alone or in the presence of one or 10 micromolar of retinol. Controls consisted of addition of ethanol alone, retinol alone, or phenol red, which has estrogen-like activity and is included as a positive control.
Each plate was returned to the incubator for 20 hours followed by the addition of 14C-acetate buffer (5 mM final concentration, 56 mCi/mmol specific activity). Sebocytes were returned to the incubator for four hours after which each culture was rinsed three times with phosphate buffered saline to remove unbound label. Radioactive label remaining in the sebocytes was harvested and counted using a Beckman scintillation counter.

[1] = 10 μM test compound + 10 μM Retinol
[2] = 0.1 μM test compound + 1 μM Retinol, read-out: % of Control
[3] = 0.1 μM test compound + 10 μM Retinol, read-out: % of Control
[4] = 0.1 μM test compound alone, 14C-acetate label remaining in sebocytes, 20 h + 4 h, read-out: % of Control
[5] = 1 μM test compound alone, read-out: % of Control
[6] = 10 μM test compound + 10 μM Retinol, read-out: % of Control
[7] = 1 μM test compound + 10 μM Retinol
[8] = 1 μM test compound + 1 μM Retinol, read-out: % of Control
[9] = 10 μM test compound + 1 μM Retinol, read-out: % of Control
[10] = 100 μM test compound + 1 μM Retinol, read-out: % of Control
[11] = 100 μM test compound + 10 μM Retinol, read-out: % of Control
[12] = 100 μM test compound alone, read-out: % of Control
[13] = 10 μM test compound alone, read-out: % of Control
[14] = 1 μM test compound + 10 μM Retinol, read-out: % of Control

Structure (SMILES)	% of Control (1 μM test compound alone, 1 µM)	activity at 1 µM [5]	activity at 1 µM [8]	activity at 10 µM [9]	activity at 100 µM [10]	activity at 100 µM [11]	activity at 100 µM [12]	activity at 10 µM [13]	activity at 1 µM [14]	further results
O=S1(=O)OC(c2ccc(O)cc2)(c2ccc(O)cc2)c2ccccc21 [Phenol Red, phenol red, reference compound]										% of Control (28 μM Phenol Red (positive control)): 95.3% and 74.7%; % of Control (280 μM Phenol Red (positive control)): 15.9%
O=C(CC1c2ccccc2-c2ccccc21)N1CCC(O)(c2ccc(Cl)cc2)CC1 [Compound F]	90.2%	72.3%								% of Control [1]: 27.0%; activity at 0.1 µM [2]: 92.8%; activity at 0.1 µM [3]: 83.6%; activity at 0.1 µM [4]: 95.8%; activity at 10 µM [6]: 16.7%
CCCN(CCO)C(=O)CC1c2ccccc2-c2ccccc21 [Compound H]	74.8% and 102.7%		86.4%	76.6%	67.6%	27.2%	79.8%			% of Control [7]: 72.8% and 99.9%; % of Control [1]: 80.2% and 100.4%; % of Control (10 μM test compound alone, 10 µM): 74.6% and 111.7%; % of Control (100 μM test compound + 10 μM Retinol): 44.4%; % of Control (100 μM test compound alone, 100 µM): 73.6%
O=C(Nc1ccc(O)cc1)N1c2ccccc2CCc2ccccc21 [Compound C]	66.4%			37.4%				56.1%		% of Control [7]: 48.5%; activity at 0.1 µM [2]: 95.1%; activity at 0.1 µM [3]: 84.6%; activity at 0.1 µM [4]: 103%; sebum suppressive activity when combined with retinol (in the presence of retinol / a retinoid, versus compound alone): improved activity
CC1=C(Cl)CCC=C1NC(=O)N1c2ccccc2CCc2ccccc21 [Compound D]		77.6%		97.1%	1.1%	0.5%	1.8%	82.7%	74.6%	% of Control (1 μM test compound + 1 μM Retinol): 96.9%; activity at 10 µM [6]: 76.8%
O=C(Nc1ccc(OC(F)(F)F)cc1)N1c2ccccc2CCc2ccccc21 [Compound B]		94.1%	104%		0.8%	0.6%	1.7%	89.4%	65.7%	
CC(O)c1cccc(NC(=O)N2c3ccccc3CCc3ccccc32)c1 (stereo not shown) [Compound A]		85.7%	82.8%		1%	0.6%	2.1%	91.3%	93.2%	
CC1=C(/C=C/C(C)=C/C=C/C(C)=C/CO)C(C)(C)CCC1 [Retinol, retinol, reference compound]										% of Control (1 μM Retinol alone (control)): 98.1%; % of Control (10 μM Retinol alone (control)): 105.8%; activity at 1 µM (1 μM Retinol alone (control)): 96.5%
O=C(CC1c2ccccc2-c2ccccc21)N1CCC(O)(c2ccccc2)CC1 [Compound G]	70.7%					0.6%	2%	67.7%		
